According to BindingDB's records for PubMed 32092586 (Zhengzhou University, 2020):

Target: Ubiquitin carboxyl-terminal hydrolase 7 (Homo sapiens, UniProt Q93009)
Assay: Inhibition of human USP7 using Ub-AMC as substrate

Chain of Ubiquitin carboxyl-terminal hydrolase 7 (Q93009 whole entry): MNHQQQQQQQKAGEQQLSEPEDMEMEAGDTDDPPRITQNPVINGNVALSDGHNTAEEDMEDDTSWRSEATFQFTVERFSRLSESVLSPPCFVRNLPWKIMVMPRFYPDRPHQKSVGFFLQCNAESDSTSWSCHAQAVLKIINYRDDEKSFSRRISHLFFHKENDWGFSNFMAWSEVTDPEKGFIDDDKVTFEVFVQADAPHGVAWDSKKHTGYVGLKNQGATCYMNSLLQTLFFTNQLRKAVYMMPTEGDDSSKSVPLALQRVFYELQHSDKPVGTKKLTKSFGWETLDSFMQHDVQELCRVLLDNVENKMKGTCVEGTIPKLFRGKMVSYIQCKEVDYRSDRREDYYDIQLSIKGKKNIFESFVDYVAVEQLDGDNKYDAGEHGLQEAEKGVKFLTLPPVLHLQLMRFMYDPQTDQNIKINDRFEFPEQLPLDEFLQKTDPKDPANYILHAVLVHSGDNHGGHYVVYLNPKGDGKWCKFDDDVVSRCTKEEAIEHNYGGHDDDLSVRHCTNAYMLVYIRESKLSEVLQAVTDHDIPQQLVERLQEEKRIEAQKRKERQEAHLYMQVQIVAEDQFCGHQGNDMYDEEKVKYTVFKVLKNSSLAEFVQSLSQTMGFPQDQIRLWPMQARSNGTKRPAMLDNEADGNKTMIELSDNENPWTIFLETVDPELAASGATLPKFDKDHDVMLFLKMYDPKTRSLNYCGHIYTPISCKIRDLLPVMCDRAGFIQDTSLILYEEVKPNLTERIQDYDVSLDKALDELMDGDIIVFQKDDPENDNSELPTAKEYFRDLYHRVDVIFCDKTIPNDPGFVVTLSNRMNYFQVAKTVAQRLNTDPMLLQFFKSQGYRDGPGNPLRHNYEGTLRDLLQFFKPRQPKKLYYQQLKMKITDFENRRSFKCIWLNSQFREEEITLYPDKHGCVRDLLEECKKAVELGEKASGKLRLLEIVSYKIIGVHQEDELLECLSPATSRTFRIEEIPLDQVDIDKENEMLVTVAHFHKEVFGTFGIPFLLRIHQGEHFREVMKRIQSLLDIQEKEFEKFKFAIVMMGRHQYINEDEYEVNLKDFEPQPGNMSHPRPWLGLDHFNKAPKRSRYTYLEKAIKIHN

How did the IC50 turn out when `C[C@H](CC(=O)N1CCC(O)(Cn2cnc3cc(NC(=O)CCN4CCN(C)CC4)ccc3c2=O)CC1)c1ccccc1` was run?
Its IC50 is 90 nM.
